We go through three molecules from patent US7396857B2, “Therapeutic combinations for the treatment or prevention of depression” (Wyeth, priority 2005, dated 2008).

Assay [1] relates to Male Swiss Webster mice. Kind of assay: Tail suspension test. It counts as in vivo. An excerpt:
Compound 1, (7-(2,6-dichlorophenyl)-5-fluoro-2,3-dihydrobenzofuran-2-yl)methanamine, was used to exemplify the effectiveness of compounds of the present invention in the tail suspension test. While not a direct model of depression, the tail suspension test is an assay that can evaluate antidepressant-like effects of drugs. Clinically effective drugs such as Prozac (fluoxetine) are effective in this assay. Specifically, they decrease the amount of time the mice spend immobile after being hung upside down by their tails during the test. It is impossible to determine if a mouse is indeed depressed. However, the fact that clinically effective antidepressants reduce immobility lends predictive validity to the model.
Male Swiss Webster mice (Charles River) weighing 20-35 g were used throughout this study. They were housed in groups of five per cage in an AALAC-accredited facility that was maintained on a 12-h light dark cycle (lights on at 0600 h) and had free access to food and water. Experimental groups consisted of 12 mice, randomly assigned to treatment groups. All experiments were performed between 9:00 AM and noon in accordance to the Guide for the Care and Use of Laboratory Animals as adopted and promulgated by the National Institutes of Health (Pub. 85-23, 1985).
Solutions of Compound 1 and paroxetine were freshly prepared. Compound 1 was dissolved in saline and paroxetine was dissolved in distilled water. All drugs were injected i.p. at a volume of 10 ml/kg body weight. Combination treatments were cotreated, 30 minutes prior to the test.
The procedure followed in this study was a variant of the one originally described by Steru et al. (1985). […] The time spent immobile during a 6-minute test session was automatically recorded. […] Data collected were expressed as a mean of immobility time and statistical analysis was performed using a one-way ANOVA with least significant difference (LSD) post-hoc test.

Assay [2] relates to Male Swiss Webster mice. Particulars: general statement on clinically effective drugs; cited from earlier work.

Turning to `NCC1Cc2cc(F)cc(-c3c(Cl)cccc3Cl)c2O1` (stereo not shown) [Compound 1, (7-(2,6-dichlorophenyl)-5-fluoro-2,3-dihydrobenzofuran-2-yl)methanamine], the “produced antidepressant-like effects alone” value in the assay on Male Swiss Webster mice [1] (Compound 1 0.1 mg/kg i.p. alone, 30 minutes prior to test, 6-minute session) is listed as “Neither”.
As to `CNCCC(Oc1ccc(C(F)(F)F)cc1)c1ccccc1` (stereo not shown) [Prozac, N-methyl-3-(p-trifluoromethylphenoxy)-3-phenylpropylamine], the “effectiveness in the tail suspension assay (decrease of time spent immobile)” value in the assay on Male Swiss Webster mice [2] is on record as “effective”.
As for `Fc1ccc([C@@H]2CCNC[C@H]2COc2ccc3c(c2)OCO3)cc1` [paroxetine, trans-(−)-3-[(1,3-benzodioxol-5-yloxy)methyl]-4-(4-fluo-rophenyl)piperidine], the “decrease in immobility time” value is 5% in the assay with Male Swiss Webster mice [1] (paroxetine 10 mg/kg i.p. dosed alone) and 4% in the assay on Male Swiss Webster mice [1] (paroxetine 30 mg/kg i.p. dosed alone).
